{
  "source": "patent US10752581B2",
  "about": "“4-((2-hydroxy-3-methoxybenzyl)amino)benzenesulfonamide derivatives as potent and selective inhibitors of 12-lipoxygenase” (Eastern Virginia Medical School, priority 2013, dated 2020)",
  "key": {"[1]": {"system": "washed human platelets", "assay": "PAR4-AP-induced platelet aggregation", "format": "cell-based", "procedure": "(§1) Blood was centrifuged at 200 g for 13 min at room temperature."}, "[2]": {"system": "washed human platelets", "assay": "PAR4-AP-induced calcium mobilization", "format": "cell-based", "settings": "200 μM PAR4-AP; increasing concentrations", "procedure": "as §1"}, "[3]": {"system": "human primary donor islets", "assay": "Human Islet (12-HETE Inhibition) Assay", "format": "cell-based", "settings": "10 μM"}, "[4]": {"system": "human donor islet preparations", "assay": "Glucose-stimulated insulin secretion in human islets", "format": "cell-based", "settings": "cytokines (TNFα, IL-1β, IFNγ); 3 mM or 18 mM glucose", "procedure": "FIGS. 3D and 3E show results from glucose-stimulated insulin secretion in human donor islet preparations in response to 3 mM glucose (Low) or 18 mM glucose (High) for control (untreated) islets. […] FIGS. 3D and 3E represent results obtained in different human donor islet preparations."}, "[5]": {"assay": "PBS buffer (pH 7.4) solubility", "format": "physicochemical", "settings": "PBS buffer, pH 7.4, aqueous buffer"}, "[6]": {"assay": "Microsomal stability (mouse)", "format": "in vitro ADME"}, "[7]": {"system": "Caco-2", "assay": "Caco-2 assay permeability", "format": "in vitro ADME", "settings": "A→B"}, "[8]": {"system": "washed human platelets", "assay": "FcγRIIa-mediated platelet aggregation", "format": "cell-based", "settings": "ML355 20 μM, 15 minutes; anti-CD9 stimulation or IV.3 + GAM cross-linking", "from_the_text": "(§2) Preparation of washed human platelets: Prior to blood collection written informed consent was obtained from all volunteers. Washed platelets were isolated from the blood of healthy volunteers as previously described (14). Washed platelets were resuspended in tyrodes buffer at 3.0×10^8 platelets/mL unless otherwise indicated.\n(§3) FcγRIIa-mediated platelet activation: FcγRIIa-mediated platelet activation was initiated by two distinct models; either 1) FcγRIIa antibody cross-linking or 2) CD9 monoclonal antibody stimulation. To cross-link FcγRIIa, washed platelets were incubated with IV.3, an FcγRIIa mouse monoclonal antibody, for one minute followed by the addition of a goat anti-mouse (GAM) IgG antibody to cross-link FcγRIIa. The concentration of FcγRIIa cross-linking antibodies used for each experiment is indicated in the text. Alternatively, washed human platelets were stimulated with an anti-CD9 monoclonal antibody to activate FcγRIIa mediated signaling. Due to inter-individual variability in anti-CD9 response, a range of anti-CD9 concentration (0.25-1 μg/ml) was used to achieve an aggregation of EC80. […]\nPlatelet aggregation: Platelet aggregation was measured with a lumi-aggregometer (Chronolog Corp, Model 700D) under stirring conditions at 37° C."}, "[9]": {"system": "FcγRIIa-stimulated platelets", "assay": "Dense granule secretion (ATP release) after FcγRIIa stimulation", "format": "cell-based, human", "settings": "compared with DMSO treated platelets", "from_the_text": "as §2, §3\nDense granule secretion: ATP release was measured from washed platelets as surrogate for dense granule secretion. […] Platelets were stimulated with FcγRII antibody cross-linking under stirring conditions and fluorescence was measured in real-time using a lumi-aggregometer."}, "[10]": {"system": "FcγRIIa-stimulated platelets", "assay": "Syk phosphorylation after FcγRIIa cross-linking", "format": "cell-based, human", "settings": "ML355 (20 μM)", "procedure": "FIGS. 15A-15B show the role of 12-LOX in regulating the FcγRIIa signaling complex. Washed human platelets were pre-treated with ML355 (20 μM) or vehicle control prior to IV.3 and GAM stimulation. (FIG. 15A) Immunoprecipitation of FcγRIIa at 15, 30, and 60 seconds post crosslinking and measured for phosphorylation via Western blot. (FIG. 15B) Platelets were lysed following FcγRIIa cross-linking in the presence of ML355 or DMSO were immunoblotted for active (pY323) and total Syk.\nPhosphorylation of FcγRIIa results in recruitment and activation of the tyrosine kinase Syk which is crucial for the formation of the LAT signalosome. The phosphorylation of Syk was measured following FcγRIIa stimulation of platelets in the presence or absence of ML355. The degree of Syk phosphorylation in response to FcγRIIa cross-linking in the presence of ML355 was varied in the subjects tested and may be due to inter-individual variability. […] To assess if 12-LOX regulates PLCy2 activation downstream of FcγRIIa, PLCy2 phosphorylation was measured in washed human platelets in the presence or absence of ML355. Platelets stimulated by FcγRIIa antibody cross-linking were phosphorylated within 15 seconds following stimulation. […]"}, "[11]": {"system": "FcγRIIa-stimulated platelets", "assay": "PLCγ2 phosphorylation after FcγRIIa cross-linking", "format": "cell-based, human", "settings": "ML355 (20 μM); 15 and 30 seconds", "procedure": "(§4) FcγRIIa-mediated platelet activation: FcγRIIa-mediated platelet activation was initiated by two distinct models; either 1) FcγRIIa antibody cross-linking or 2) CD9 monoclonal antibody stimulation. To cross-link FcγRIIa, washed platelets were incubated with IV.3, an FcγRIIa mouse monoclonal antibody, for one minute followed by the addition of a goat anti-mouse (GAM) IgG antibody to cross-link FcγRIIa. The concentration of FcγRIIa cross-linking antibodies used for each experiment is indicated in the text. Alternatively, washed human platelets were stimulated with an anti-CD9 monoclonal antibody to activate FcγRIIa mediated signaling. Due to inter-individual variability in anti-CD9 response, a range of anti-CD9 concentration (0.25-1 μg/ml) was used to achieve an aggregation of EC80. In studies using the 12-LOX inhibitor (ML355), washed platelets were incubated with either ML355 (20 μM), or DMSO (vehicle control) for 15 minutes prior to FcγRIIa stimulation.\nPLCγ2 phosphorylation: Washed human platelets were adjusted to 5×10^8 platelets/mL and stimulated in an aggregometer by antibody cross-linking of FcγRIIa and lysed at designated times with 5× reducing buffer to stop the reaction. Samples were separated on a 7.5% SDS-PAGE gel. Antibodies to PLCy2 and phospho-Y759 PLCy2, a marker of PLCy2 activation, were used to evaluate the relative levels of total and active PLCy2, respectively."}, "[12]": {"system": "FcγRIIa-stimulated platelets", "assay": "PKC activation assay", "format": "cell-based, human", "procedure": "as §4\nPKC activation assay: Washed platelets were stimulated by FcγRIIa antibody cross-linking under stirring conditions (1100 rpm) in an aggregometer at 37° C. Reactions were stopped by the addition of 5X× Laemmli sample buffer at the indicated times. As a positive control platelets were treated with PMA ([…]), a direct PKC agonist, for one minute. […]"}, "[13]": {"assay": "In Vivo PK (Mouse)"}, "[14]": {"assay": "Parallel Artificial Membrane Permeability Assay (PAMPA)", "settings": "PAMPA at pH 7.4"}, "[15]": {"settings": "male, CD1, mouse, in vivo, intravenous, 3 mpk"}, "[16]": {"settings": "male, CD1, mouse, in vivo, iv, 3 mg/kg"}, "[17]": {"settings": "male, CD1, mouse, in vivo, po, 30 mg/kg"}},
  "note": "Entries after “also recorded” stand apart in the source; their conditions may differ. Marks after values point to notes of the source that are not given here.",
  "data": [
    {"smiles": "COc1cccc(CNc2ccc(S(=O)(=O)Nc3nc4ccccc4s3)cc2)c1O", "note": "[Compound 35, N-(benzo[d]thiazol-2-yl)-4-((2-hydroxy-3-methoxybenzyl)amino)benzenesulfonamide]", "values": [
      {"measurement": "PAR4-AP induced platelet aggregation (in words)", "setting": "[1]", "value": "significantly reduce PAR4-AP induced platelet aggregation"},
      {"measurement": "platelet aggregation at 10 μM", "setting": "[1]; 10 μM, PAR4-AP", "value": "did not inhibit platelet aggregation"},
      {"measurement": "PAR4-AP-induced calcium mobilization (in words)", "setting": "[2]", "value": "Calcium mobilization was decreased"},
      {"measurement": "AA/IONO-induced 12-HETE production in human islets", "setting": "[3]", "value": "significant inhibition of AA/IONO-induced 12-HETE production"},
      {"measurement": "glucose-stimulated insulin secretion with cytokines", "setting": "[4]", "value": "Uncoupling of glucose-stimulated insulin secretion by cytokines is inhibited"},
      {"measurement": "solubility", "setting": "[5]", "value": "< 5", "unit": "µg/mL"},
      {"measurement": "Microsomal stability T1/2 (min)", "setting": "[6]; in the presence of NADPH", "value": ">300^a min"},
      {"measurement": "half-life", "setting": "[6]; microsomes, read-out: microsomal stability T1/2", "value": "> 5", "unit": "h"},
      {"measurement": "permeability (1 × 10^−6 cm/s)", "setting": "[7]", "value": "1.5 (A→B)^a 1 × 10^−6 cm/s"},
      {"measurement": "FcγRIIa-mediated platelet aggregation", "setting": "[8]", "value": "attenuated FcγRIIa-mediated platelet aggregation; also recorded: significantly attenuated aggregation"},
      {"measurement": "ATP release (dense granule secretion)", "setting": "[9]", "value": "significant decrease in ATP release"},
      {"measurement": "Syk phosphorylation", "setting": "[10]", "value": "attenuation of Syk phosphorylation in the presence of ML355 was minor"},
      {"measurement": "PLCγ2 phosphorylation", "setting": "[11]", "value": "attenuated PLCy2 phosphorylation at 15 and 30 seconds"},
      {"measurement": "PKC activation", "setting": "[12]; ML355 (20 μM), 30 and 60 seconds, FcγRIIa cross-linking", "value": "significant decrease in PKC activation"},
      {"measurement": "PKC activation by PMA", "setting": "[12]; PMA, a direct PKC activator", "value": "no difference in its ability to activate PKC"},
      {"measurement": "time remaining over IC50 value", "setting": "[13]; 30 mpk dosing", "value": "over 12 hours"},
      {"measurement": "% F", "setting": "[13]; PO, 30 mpk", "value": 19.8, "unit": "%"},
      {"measurement": "Vd", "setting": "[13]; [15]", "value": 0.55, "unit": "L/kg"},
      {"measurement": "clearance", "setting": "[13]; [15]", "value": 3.4, "unit": "mL/min/kg"},
      {"measurement": "AUC(0-inf)", "setting": "[13]; [16]", "value": 34, "unit": "µM·h"},
      {"measurement": "Cmax", "setting": "[13]; [16]", "value": 112, "unit": "µM"},
      {"measurement": "Vd", "setting": "[13]; [16]", "value": 0.55, "unit": "L/kg"},
      {"measurement": "clearance", "setting": "[13]; [16]", "value": 3.4, "unit": "mL/min/kg"},
      {"measurement": "half-life", "setting": "[13]; [16]", "value": 3.4, "unit": "h"},
      {"measurement": "AUC(0-inf)", "setting": "[13]; [17]", "value": 67, "unit": "µM·h"},
      {"measurement": "Cmax", "setting": "[13]; [17]", "value": 38, "unit": "µM"},
      {"measurement": "bioavailability", "setting": "[13]; [17]", "value": "~20", "unit": "%"},
      {"measurement": "half-life", "setting": "[13]; [17]", "value": 2.9, "unit": "h"},
      {"measurement": "permeability (1 × 10^−6 cm/s)", "setting": "[14]", "value": "394^c 1 × 10^−6 cm/s"}
    ]}
  ]
}
